Columns and labels:
[1] = molecular target: human recombinant serotonin transporter (SERT) (Homo sapiens (Human), UniProt P31645); experiment: Radioligand binding assay, serotonin transporter (MDS Pharma); conditions: for nH (Hill coefficient): SERT, slope of the competitive binding curve
Protocol: (§1) The monoamine transporters inhibitory activities of selected compounds (54b and 54d) are reported herein. The compounds were evaluated at MDS Pharma services (22011 Drive SE, Bothell, Wash. 98021, USA) using well established radioligand binding assays protocols (Galli, A. et al., J. Exp. Biol. 1995, 198, 2197-2212; Giros, B. et al., Trends Pharmcol. Sci. 1993, 14, 43-49; Gu, H. et al., J. Biol. Chem. 1994, 269(10), 7124-7130; Shearman, L. P. et al, Am. J. Physiol., 1998, 275 (6 Pt 1), C1621-1629; Wolf, W. A. et al., J. Biol. Chem. 1992, 267(29), 20820-20825). The human recombinant transporter proteins dopamine (DAT), norepinephrine (NET) and serotonin (SERT) were selected for the in vitro assays. The CHO-K1 cells expressed with human recombinant dopamine transporter (DAT) (MDS catalog 220320) was used for evaluating the dopamine transporter inhibitory activity. Whereas, MDCK cells expressed with human recombinant transporters norepinephrine (NET) (MDS catalog no. 204410) and serotonin (SERT) (MDS catalog no. 274030) were used for evaluating the norepinephrine transporter (NET) and serotonin transporter (SERT) inhibitory activities, respectively. The radioligand binding assays were carried out at four different test concentrations and the test concentrations were 1 nM, 10 nM, 0.1 μM, and 1 μM.
(§2) The assays were carried out in duplicates and the quantitative data are reported as IC50, Ki, and nH. Where presented, IC50 values were determined by a non-linear, least squares regression analysis using MathIQ™ (ID Business Solutions Ltd. UK). […] Where presented, the Hill coefficient (nH), defining the slope of the competitive binding curve, was calculated using MathIQ™.

[2] = molecular target: human recombinant dopamine transporter (DAT) (Homo sapiens (Human), UniProt Q01959); experiment: Radioligand binding assay, dopamine transporter (MDS Pharma); conditions: for nH (Hill coefficient): DAT, slope of the competitive binding curve
Protocol: as §1, §2

[3] = molecular target: human recombinant norepinephrine transporter (NET) (Homo sapiens (Human), UniProt P23975); experiment: Radioligand binding assay, norepinephrine transporter (MDS Pharma); conditions: for nH (Hill coefficient): NET, slope of the competitive binding curve
Protocol: The human recombinant transporter proteins dopamine (DAT), norepinephrine (NET) and serotonin (SERT) were selected for the in vitro assays. […] The radioligand binding assays were carried out at four different test concentrations and the test concentrations were 1 nM, 10 nM, 0.1 μM, and 1 μM.
as §2

Sequence of human recombinant norepinephrine transporter (NET) (P23975 whole entry): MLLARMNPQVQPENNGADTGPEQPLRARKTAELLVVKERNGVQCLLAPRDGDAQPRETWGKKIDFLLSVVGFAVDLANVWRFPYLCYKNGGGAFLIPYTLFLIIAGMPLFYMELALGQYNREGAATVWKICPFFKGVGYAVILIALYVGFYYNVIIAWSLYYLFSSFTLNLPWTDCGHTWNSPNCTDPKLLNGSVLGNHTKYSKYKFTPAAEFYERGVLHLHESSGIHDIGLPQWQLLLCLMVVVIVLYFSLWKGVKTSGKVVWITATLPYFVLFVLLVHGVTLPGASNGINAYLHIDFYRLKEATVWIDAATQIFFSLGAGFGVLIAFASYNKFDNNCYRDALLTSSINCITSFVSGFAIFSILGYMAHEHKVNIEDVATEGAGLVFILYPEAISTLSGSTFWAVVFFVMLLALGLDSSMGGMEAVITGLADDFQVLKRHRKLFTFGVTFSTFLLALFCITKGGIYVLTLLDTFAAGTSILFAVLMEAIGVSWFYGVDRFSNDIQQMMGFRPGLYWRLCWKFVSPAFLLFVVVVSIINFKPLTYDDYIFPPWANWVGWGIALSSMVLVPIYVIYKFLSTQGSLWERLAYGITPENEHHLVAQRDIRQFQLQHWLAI

| SMILES | IC50 [1] [nM] | Ki [1] [nM] | nH (Hill coefficient) [1] | IC50 [2] [nM] | Ki [2] [nM] | nH (Hill coefficient) [2] | IC50 [3] [nM] | Ki [3] [nM] | nH (Hill coefficient) [3] |
| --- | --- | --- | --- | --- | --- | --- | --- | --- | --- |
| CCOC(=O)C(CC)NC(CC(C)C)C1(c2ccc(Cl)cc2)CCC1 (stereo not drawn) [Compound 54b, Ethyl 2-(1-(1-(4-chlorophenyl)cyclobutyl)-3-methylbutylamino]butanoate] | 140 | 22.8 | 0.677 | 56.9 | 45.2 | 0.826 | 121 | 120 | 0.832 |
| CCC(NC(CC(C)C)C1(c2ccc(Cl)cc2)CCC1)C(=O)OCC(C)C (stereo not drawn) [Compound 54d, Isobutyl 2-(1-(1-(4-chlorophenyl)cyclobutyl)-3-methylbutylamino]butanoate] | 415 | 67.6 | 0.578 | 370 | 294 | 0.943 | 182 | 180 | 1.04 |

Source: patent US9302981B2, “Synthesis, methods of using, and compositions of cycloalkylmethylamines” (Reviva Pharmaceuticals, Inc., priority 2006, dated 2016)
